Reference: patent US20240124428A1, “HETEROCYCLIC INHIBITORS OF PCSK9” (CARDIO THERAPEUTICS PTY LTD, priority 2020, published 2024)

How the values were obtained:
[1] = Dedicated pharmacokinetic study, single oral dose; type: in vivo, C57BL/6 mice; settings: plasma; for Cmax / Tmax / AUC(0-t): female, C57BL/6, mouse, mice; for Cmax / Tmax: PO 50 mg/kg study; for AUC(0-t): route and dose not given (PO 50 mg/kg study); for bioavailability: mouse, PO dose of 50 mg/kg, female C57BL/6 mice
Protocol: For dedicated pharmacokinetic analyses of compounds 29, 122 and 131, C57BL/6 mice (19-21 g, 10-12 weeks, female, purchased from Jihui Laboratory Animal Co. LTD) were given free access to food and water throughout the in-life phase of the study. Mice were orally dosed once with 50 mg/kg (10 mL/kg) of either compound 29, 122 and 131 with each compound formulated in 90% saline, 5% Solutol HS15 and 5% DMSO. At designated time points following dosing (t=0.083, 0.25, 0.5, 1, 2, 4, 8 and 24 h), the animals were restrained manually and ˜110 μL of blood/time point was collected into pre-cooled EDTA-K2 tubes via the facial vein. Blood samples were put on wet ice, then centrifuged at 2000 g for 5 min (4° C.) to obtain plasma within 15 min after sample collection. Plasma samples were subsequently stored at approximately −70° C. until analysis. Each sample was assayed for levels of 29, 122 and 131 by LC/MS/MS using a Triple Quadruple (6500+) system operating in a positive electrospray ionisation mode.
The mean plasma concentration-time profiles from dedicated pharmacokinetic analyses of compound 29, 122 and 131 are shown in FIG. 5A-C. Mice were orally dosed once with either 50 mg/kg of (A) compound 29, (B) compound 122 or (C) compound 131.

[2] = Cassette pharmacokinetic study, intravenous; type: in vivo, C57BL/6 mice; settings: mice, route not given (IV study 0.4 mg/kg); for Vd: male, C57BL/6, mouse, plasma, read-out: VSS
Protocol: Cassette dosing is a technique primarily used in drug discovery efforts in non-clinical studies to collect pharmacokinetic data from multiple drug candidates in a single experiment.
C57BL/6 mice (21-22 g, 6-8 weeks, male, purchased from Jihui Laboratory Animal Co. LTD) were allowed access to food and water ad libitum throughout the in-life phase of the study. Mice were dosed intravenously (IV) with a cassette of 0.4 mg/kg of test compounds in 5% DMAC, 5% Solutol HS15 and 90% saline. At designated time points, the animals were restrained manually, and ˜110 μL of blood/time point was collected into pre-cooled EDTA-K2 tubes via the facial vein. Blood samples were centrifuged at 4° C. (2000 g, 5 min) to obtain plasma within 15 min after sample collection. Plasma samples were stored at approximately −70° C. until analysis. Samples were assayed for their levels of test compounds by LC/MS/MS using a Triple Quadruple (6500+) system operating in a positive electrospray ionisation mode.
The PK parameters of half-life (T1/2) and area under the curve (AUC) of the compounds were assessed following a single intravenous (IV) injection (0.4 mg/kg) in mice (male, C57BL/6).

[3] = target: T1, CYP3A4 (Homo sapiens, UniProt P08684); test: CYP inhibition assay, CYP3A4; type: in vitro ADME; settings: probe Midazolam (5 μM), human liver microsomes
T1 construct: using human liver microsomes; from tissue; host or cells: human liver microsomes
Protocol: (§1) In vitro CYP (cytochrome P450) enzyme inhibition studies predict a drug candidate's predisposition to inhibit cytochrome P450 enzymes. The cytochrome P450 (CYP) inhibition assay was run against CYP2D6 and CYP3A4 isoforms using human liver microsomes. For CYP2D6, the probe substrates was Bufaralol (10 μM) and the positive control was Quinidine (2.5 μM). Midazolam (5 μM) was chosen as the probe substrate for CYP3A4 and Ketocanazole (2.5 μM) was used as the positive control inhibitor. To increase the throughput of the assay, one concentration (10 μM) was tested. For analysis via LC-MS, internal standards of 1-OH-Bufuralol-maleate-[D9] for CYP2D6 and 1′-OH-Midazolam-13C3 for CYP3A4 were used.

[4] = target: T2, CYP2D6 (Homo sapiens, UniProt P10635); test: CYP inhibition assay, CYP2D6; type: in vitro ADME; settings: probe Bufaralol (10 μM), human liver microsomes
T2 construct: using human liver microsomes; from tissue; host or cells: human liver microsomes
Protocol: as §1

[5] = target: T3, hERG channel (Homo sapiens, UniProt Q12809); test: hERG assay (automated QPatch); type: cell-based; settings: CHO cells expressing hERG channels
T3 construct: expressed in transfected cells; host or cells: CHO
Protocol: A CHO cell line stably transfected with hERG cDNA and expressing hERG channels was used. Cells used in the QPatch all met the following criteria: under microscopy examination, the majority of cells in suspension were single and isolated, their viability was greater than 95%, cell density ranged between 3-8×10^6 cells/mL in the final suspension before applying to the QPatch stir chamber. Cells were used within 4 hours of harvesting. Whole-cell recordings were performed using automated QPatch (Sophion Bioscience, Denmark). The cells were voltage clamped at a holding potential of −80 mV. The hERG current was activated by depolarising at +20 mV for 5 seconds, after which the current was taken back to −50 mV for 2.5 seconds to remove the inactivation and observe the outward tail current. The maximum amount of tail current was used to determine hERG current amplitude.

[6] = HepG2 cytotoxicity (CellTiter-Glo); type: cell-based; settings: human, HepG2 cells; 48 h of exposure
Protocol: HepG2 is a human hepatoma commonly used in drug metabolism and hepatotoxicity studies.
HepG2 cells were seeded at a density of 7000 or 8000 cells/well in a 96-well plate. Twenty to twenty four hours later, cells were treated with test compound for 48 hours in 3-fold serial dilutions with a top test concentration of 50 or 150 μM. After the incubation, CellTiter-Glo reagent was added directly to the wells. The plate was shaken for 2 or 5 mins on a plate shaker then incubated at room temperature for a further 10 mins. Subsequently, 100 μL of the above solution was transferred to a white flat bottom opaque 96 well plate (or opaque-walled clear bottom plates taped with a white bottom seal) and luminescence recorded on a plate reader.

[7] = Dedicated pharmacokinetic study, single oral dose; type: in vivo, C57BL/6 mice; settings: mice, route and dose not given; for half-life: C57BL/6, mouse, plasma, intravenous, 0.4 mg/kg

T2 sequence (P10635 whole entry): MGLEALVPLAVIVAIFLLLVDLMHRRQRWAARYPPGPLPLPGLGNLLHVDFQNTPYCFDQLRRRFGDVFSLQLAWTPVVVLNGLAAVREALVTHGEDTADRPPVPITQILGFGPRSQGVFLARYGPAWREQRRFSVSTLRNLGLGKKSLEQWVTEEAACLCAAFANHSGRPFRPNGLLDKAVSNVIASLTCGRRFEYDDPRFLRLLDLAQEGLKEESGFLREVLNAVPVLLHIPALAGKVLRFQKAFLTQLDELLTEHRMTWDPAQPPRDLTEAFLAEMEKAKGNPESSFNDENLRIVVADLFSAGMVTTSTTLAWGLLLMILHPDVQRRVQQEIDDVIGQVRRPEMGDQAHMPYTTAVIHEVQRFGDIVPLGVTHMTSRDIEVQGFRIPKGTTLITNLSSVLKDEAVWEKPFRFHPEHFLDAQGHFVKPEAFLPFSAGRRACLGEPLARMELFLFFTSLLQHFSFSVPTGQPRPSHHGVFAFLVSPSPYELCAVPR
T3 sequence (Q12809 whole entry): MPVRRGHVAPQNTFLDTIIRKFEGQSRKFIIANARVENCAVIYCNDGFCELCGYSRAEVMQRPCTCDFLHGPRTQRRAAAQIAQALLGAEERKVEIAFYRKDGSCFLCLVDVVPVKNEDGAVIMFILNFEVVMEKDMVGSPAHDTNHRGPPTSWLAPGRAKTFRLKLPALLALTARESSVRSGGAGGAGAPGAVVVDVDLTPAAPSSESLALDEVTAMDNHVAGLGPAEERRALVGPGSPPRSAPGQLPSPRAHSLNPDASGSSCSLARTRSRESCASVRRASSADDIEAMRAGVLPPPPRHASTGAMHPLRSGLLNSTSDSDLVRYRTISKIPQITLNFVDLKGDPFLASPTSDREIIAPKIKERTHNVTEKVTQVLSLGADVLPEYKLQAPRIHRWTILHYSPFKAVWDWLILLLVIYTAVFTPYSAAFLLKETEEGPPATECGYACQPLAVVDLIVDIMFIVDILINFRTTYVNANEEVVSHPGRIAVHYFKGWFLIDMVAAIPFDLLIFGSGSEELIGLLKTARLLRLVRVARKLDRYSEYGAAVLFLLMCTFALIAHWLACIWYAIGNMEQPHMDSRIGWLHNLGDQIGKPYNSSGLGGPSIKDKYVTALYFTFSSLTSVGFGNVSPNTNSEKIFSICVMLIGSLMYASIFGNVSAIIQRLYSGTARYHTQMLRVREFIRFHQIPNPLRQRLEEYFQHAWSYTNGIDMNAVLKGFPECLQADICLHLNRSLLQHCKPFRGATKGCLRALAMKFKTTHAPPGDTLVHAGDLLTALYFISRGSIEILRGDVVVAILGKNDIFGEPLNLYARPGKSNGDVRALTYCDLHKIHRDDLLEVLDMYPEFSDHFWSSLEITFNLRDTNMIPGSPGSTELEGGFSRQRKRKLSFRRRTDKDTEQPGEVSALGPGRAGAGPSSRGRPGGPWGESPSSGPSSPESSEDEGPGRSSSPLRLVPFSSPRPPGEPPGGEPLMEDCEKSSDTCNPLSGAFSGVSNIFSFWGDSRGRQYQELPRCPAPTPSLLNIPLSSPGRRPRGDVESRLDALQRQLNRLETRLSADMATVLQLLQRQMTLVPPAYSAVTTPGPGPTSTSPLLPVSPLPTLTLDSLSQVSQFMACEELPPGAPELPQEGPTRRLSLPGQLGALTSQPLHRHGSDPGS
T1 sequence (P08684 whole entry): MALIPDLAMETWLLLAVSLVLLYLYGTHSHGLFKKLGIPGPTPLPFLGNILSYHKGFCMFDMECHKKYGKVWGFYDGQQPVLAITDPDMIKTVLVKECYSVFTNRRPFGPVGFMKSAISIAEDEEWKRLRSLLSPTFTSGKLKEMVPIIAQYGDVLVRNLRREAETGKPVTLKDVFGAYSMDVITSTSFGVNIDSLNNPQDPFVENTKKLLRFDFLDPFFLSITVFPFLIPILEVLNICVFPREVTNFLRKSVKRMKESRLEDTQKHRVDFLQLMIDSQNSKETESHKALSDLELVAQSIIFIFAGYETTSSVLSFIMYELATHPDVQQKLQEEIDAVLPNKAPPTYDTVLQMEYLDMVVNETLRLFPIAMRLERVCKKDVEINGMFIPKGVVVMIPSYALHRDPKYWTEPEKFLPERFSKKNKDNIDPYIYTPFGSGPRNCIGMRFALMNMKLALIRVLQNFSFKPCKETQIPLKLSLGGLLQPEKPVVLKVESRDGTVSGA

Cmax [1] | Tmax [1] | AUC(0-t) [1] | bioavailability [1] | Vd [2] | inhibition at 10 µM [3] | inhibition at 10 µM [4] | half-life [7] | VSS [2] | T1/2 [7] | Structure (SMILES) | IC50 [5] | IC50 at 48 h [6]
10.8 µg/mL | 4 h | 173 µg·h/mL | 75% | 1.29 L/kg | -15.4% | 25.6% | 11.3 h |  |  | Cc1ccc(-c2cc(CN3CCC(F)(F)[C@H](N)C3)cc(NC(=O)c3cc(-c4ccccc4)ccn3)c2)cn1 [Compound 122] | 35.7 µM | 11.1 µM
1.48 µg/mL | 2 h | 8.13 µg·h/mL | 40% |  | 74% | 69.8% |  | 14.7 L/kg | 6.29 h | Cc1cn(-c2cc(CN3CCC[C@H](N)C3)cc(NC(=O)c3cc(-c4ccccc4)ccn3)c2)cn1 [compound 29, (S)—N-(3-((3-aminopiperidin-1-yl)methyl)-5-(4-methyl-1H-imidazol-1-yl)phenyl)-4-phenylpicolinamide] | 2.85 µM | 3.23 µM
6.74 µg/mL | 1 h | 98.5 µg·h/mL | 54% | 3.25 L/kg | 0.68% | 11.4% | 19 h |  |  | Cc1cnc(C(=O)Nc2cc(CN3CCC(F)(F)[C@H](N)C3)cc(-c3ccc(C(F)(F)F)nc3)c2)cc1-c1ccccc1 [compound 131] | 94.2 µM | 109 µM
